Experimental data reported in PubChem BioAssay AID2060611 (Molecular Pharmacology Branch, DTP, NCI, 2025).
Where “and” joins values, the source holds several entries; their conditions need not be identical. Equal entries are not always repeated.

Tested on: 628569-122-R-J1-PDC complex spheroid viability
Assay: Anticancer human tumor 628569-122-R-J1-PDC patient-derived head and neck squamous carcinoma cell line growth inhibition [CLK]
Conditions: for viability, T/C: stronger effect = lower value
Outline: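 Multi-cell-type spheroids combined patient-derived tumor cells with HUVEC endothelial cells and human mesenchymal stem cells. Paired agents were dosed in half-log steps down from about clinical Cmax, or from 10 microM where Cmax was unknown.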

[1] = curve of first compound, second compound 0.0316 µM
[2] = curve of first compound, second compound 0.1 µM
[3] = curve of first compound, second compound 0.316 µM
[4] = curve of first compound, second compound 1 µM
[5] = curve of first compound, second compound 3.16 µM
[6] = curve of first compound, second compound 10 µM
[7] = second compound 0.0316 µM, first compound 0.0316 µM
[8] = second compound 0.0316 µM, first compound 0.1 µM
[9] = second compound 0.0316 µM, first compound 0.316 µM
[10] = second compound 0.0316 µM, first compound 1 µM
[11] = second compound 0.0316 µM, first compound 3.16 µM
[12] = second compound 0.0316 µM, first compound 10 µM
[13] = second compound 0.1 µM, first compound 0.0316 µM
[14] = second compound 0.1 µM, first compound 0.1 µM
[15] = second compound 0.1 µM, first compound 0.316 µM
[16] = second compound 0.1 µM, first compound 1 µM
[17] = second compound 0.1 µM, first compound 3.16 µM
[18] = second compound 0.1 µM, first compound 10 µM
[19] = second compound 0.316 µM, first compound 0.0316 µM
[20] = second compound 0.316 µM, first compound 0.1 µM
[21] = second compound 0.316 µM, first compound 0.316 µM
[22] = second compound 0.316 µM, first compound 1 µM
[23] = second compound 0.316 µM, first compound 3.16 µM
[24] = second compound 0.316 µM, first compound 10 µM
[25] = second compound 1 µM, first compound 0.0316 µM
[26] = second compound 1 µM, first compound 0.1 µM
[27] = second compound 1 µM, first compound 0.316 µM
[28] = second compound 1 µM, first compound 1 µM
[29] = second compound 1 µM, first compound 3.16 µM
[30] = second compound 1 µM, first compound 10 µM
[31] = second compound 3.16 µM, first compound 0.0316 µM
[32] = second compound 3.16 µM, first compound 0.1 µM
[33] = second compound 3.16 µM, first compound 0.316 µM
[34] = second compound 3.16 µM, first compound 1 µM
[35] = second compound 3.16 µM, first compound 3.16 µM
[36] = second compound 3.16 µM, first compound 10 µM
[37] = second compound 10 µM, first compound 0.0316 µM
[38] = second compound 10 µM, first compound 0.1 µM
[39] = second compound 10 µM, first compound 0.316 µM
[40] = second compound 10 µM, first compound 1 µM
[41] = second compound 10 µM, first compound 3.16 µM
[42] = second compound 10 µM, first compound 10 µM
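Further: spheroids exposed to agents for seven days before readout.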
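Wherever viability, T/C is given: 100% = DMSO vehicle control viability.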

**Q.** With `CC(=O)O[C@H]1C(=O)[C@@]2(C)[C@H]([C@H](OC(=O)c3ccccc3)[C@]3(O)C[C@H](OC(=O)[C@H](O)[C@@H](NC(=O)c4ccccc4)c4ccccc4)C(C)=C1C3(C)C)[C@]1(OC(C)=O)CO[C@@H]1C[C@@H]2O` + CN1CCN(c2cc(C(=O)Nc3cc4cc(-c5cnn(C)c5)ccc4cn3)ccn2)CC1 as the compound, how does the IC50 [1] read?
**A.** Its IC50 is < 31.6 nM.

**Q.** And the IC50 [2]?
**A.** Its IC50 is < 31.6 nM.

**Q.** And the IC50 [3]?
**A.** The IC50 was < 31.6 nM.

**Q.** What about the IC50 [4] of the same compound?
**A.** Its IC50 is < 31.6 nM.

**Q.** And the IC50 [5]?
**A.** The IC50 was < 31.6 nM.

**Q.** What about the IC50 [6] of the same compound?
**A.** The IC50 was < 31.6 nM.

**Q.** What about the viability, T/C [7] of the same compound?
**A.** The viability, T/C was 39.9%.

**Q.** And the viability, T/C [8]?
**A.** The viability, T/C was 34.4%.

**Q.** And the viability, T/C [9]?
**A.** Its viability, T/C is 38%.

**Q.** What about the viability, T/C [10] of the same compound?
**A.** The viability, T/C was 41%.

**Q.** What about the viability, T/C [11] of the same compound?
**A.** The viability, T/C was 41.6%.

**Q.** What about the viability, T/C [12] of the same compound?
**A.** Its viability, T/C is 54%.

**Q.** And the viability, T/C [13]?
**A.** Its viability, T/C is 37.5%.

**Q.** What about the viability, T/C [14] of the same compound?
**A.** The viability, T/C was 33.4%.

**Q.** What about the viability, T/C [15] of the same compound?
**A.** The viability, T/C was 39.5%.

**Q.** What about the viability, T/C [16] of the same compound?
**A.** The viability, T/C was 42.7%.

**Q.** And the viability, T/C [17]?
**A.** The viability, T/C was 47.2%.

**Q.** And the viability, T/C [18]?
**A.** The viability, T/C was 67.3%.

**Q.** What about the viability, T/C [19] of the same compound?
**A.** Its viability, T/C is 33.2%.

**Q.** And the viability, T/C [20]?
**A.** Its viability, T/C is 41.9%.

**Q.** And the viability, T/C [21]?
**A.** The viability, T/C was 41.7%.

**Q.** What about the viability, T/C [22] of the same compound?
**A.** Its viability, T/C is 41%.

**Q.** And the viability, T/C [23]?
**A.** Its viability, T/C is 33.7%.

**Q.** And the viability, T/C [24]?
**A.** The viability, T/C was 49.4%.

**Q.** What about the viability, T/C [25] of the same compound?
**A.** The viability, T/C was 4.9%.

**Q.** And the viability, T/C [26]?
**A.** Its viability, T/C is 5.86%.

**Q.** And the viability, T/C [27]?
**A.** Its viability, T/C is 4.18%.

**Q.** And the viability, T/C [28]?
**A.** The viability, T/C was 3.31%.

**Q.** And the viability, T/C [29]?
**A.** Its viability, T/C is 3.36%.

**Q.** And the viability, T/C [30]?
**A.** The viability, T/C was 4.26%.

**Q.** And the viability, T/C [31]?
**A.** Its viability, T/C is 5.69%.

**Q.** What about the viability, T/C [32] of the same compound?
**A.** Its viability, T/C is 4.99%.

**Q.** And the viability, T/C [33]?
**A.** The viability, T/C was 6.92%.

**Q.** What about the viability, T/C [34] of the same compound?
**A.** Its viability, T/C is 3.95%.

**Q.** And the viability, T/C [35]?
**A.** Its viability, T/C is 5.22%.

**Q.** And the viability, T/C [36]?
**A.** Its viability, T/C is 3.46%.

**Q.** What about the viability, T/C [37] of the same compound?
**A.** Its viability, T/C is 1.88%.

**Q.** And the viability, T/C [38]?
**A.** The viability, T/C was 4.8%.

**Q.** And the viability, T/C [39]?
**A.** Its viability, T/C is 3.63%.

**Q.** And the viability, T/C [40]?
**A.** The viability, T/C was 4.24%.

**Q.** What about the viability, T/C [41] of the same compound?
**A.** Its viability, T/C is 3.42%.

**Q.** What about the viability, T/C [42] of the same compound?
**A.** Its viability, T/C is 1.77%.

**Q.** Which results are given for `CNC(=O)c1ccc(Nc2nc(OC3CCCC3)c3c(-c4ccc5nc(C)oc5c4)c[nH]c3n2)c(OC)c1`?
**A.** viability, T/C (compound 0.0316 µM): 95.7% [middle of 12 runs]; viability, T/C (compound 0.1 µM): 60.6% [middle of 12 runs]; viability, T/C (compound 0.316 µM): 54.9% [middle of 12 runs]; viability, T/C (compound 1 µM): 44.6% [middle of 12 runs]; viability, T/C (compound 3.16 µM): 40.7% [middle of 12 runs]; viability, T/C (compound 10 µM): 41.4% [middle of 12 runs]

**Q.** How did the viability, T/C (compound 0.0316 µM) turn out when `Nc1ccccc1NC(=O)c1ccc(CNC(=O)OCc2cccnc2)cc1` was run?
**A.** Its viability, T/C is 91% and 99.9%.

**Q.** What about the viability, T/C (compound 0.1 µM) of the same compound?
**A.** Its viability, T/C is 87.9% and 94.8%.

**Q.** And the viability, T/C (compound 0.316 µM)?
**A.** Its viability, T/C is 123% and 125%.

**Q.** What about the viability, T/C (compound 1 µM) of the same compound?
**A.** Its viability, T/C is 151% and 140%.

**Q.** What about the viability, T/C (compound 3.16 µM) of the same compound?
**A.** Its viability, T/C is 135% and 121%.

**Q.** And the viability, T/C (compound 10 µM)?
**A.** Its viability, T/C is 52.9% and 43.9%.

**Q.** And the IC50 (curve of compound)?
**A.** The IC50 was > 10000 nM and 9090 nM.

**Q.** Which results are given for `Nc1ccccc1NC(=O)c1ccc(CNC(=O)OCc2cccnc2)cc1` + CNC(=O)c1ccc(Nc2nc(OC3CCCC3)c3c(-c4ccc5nc(C)oc5c4)c[nH]c3n2)c(OC)c1?
**A.** IC50 [1]: 9140 nM; IC50 [2]: > 10000 nM; IC50 [3]: > 10000 nM; IC50 [4]: 184 nM; IC50 [5]: 3310 nM; IC50 [6]: 31.6 nM; viability, T/C [7]: 97.7%; viability, T/C [8]: 114%; viability, T/C [9]: 125%; viability, T/C [10]: 138%; viability, T/C [11]: 101%; viability, T/C [12]: 45.6%; viability, T/C [13]: 59.1%; viability, T/C [14]: 55%; viability, T/C [15]: 61.9%; viability, T/C [16]: 83.7%; viability, T/C [17]: 102%; viability, T/C [18]: 32.3%; viability, T/C [19]: 50.8%; viability, T/C [20]: 51%; viability, T/C [21]: 49%; viability, T/C [22]: 73.3%; viability, T/C [23]: 94.1%; viability, T/C [24]: 22.5%; viability, T/C [25]: 42.9%; viability, T/C [26]: 48.7%; viability, T/C [27]: 47.4%; viability, T/C [28]: 60.4%; viability, T/C [29]: 81.8%; viability, T/C [30]: 12.5%; viability, T/C [31]: 44.6%; viability, T/C [32]: 45.5%; viability, T/C [33]: 45.8%; viability, T/C [34]: 56.5%; viability, T/C [35]: 67.3%; viability, T/C [36]: 7.27%; viability, T/C [37]: 48.6%; viability, T/C [38]: 41.5%; viability, T/C [39]: 44.2%; viability, T/C [40]: 54.3%; viability, T/C [41]: 57.6%; viability, T/C [42]: 4.45%
